According to PubChem BioAssay AID1963420 (Molecular Pharmacology Branch, DTP, NCI, 2024):

Tested on: 494315-158-R-J1-PDC complex spheroid growth, percent test/control
Assay: Anticancer human tumor 494315-158-R-J1-PDC patient-derived soft tissue sarcoma cell line growth inhibition [Asc]
Settings: for IC50: curve of first compound; for viability, T/C: stronger effect = lower value
In short: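 Concentration series start at each agent's clinical Cmax, or at 10 microM when none is established, and drop in half-log steps; agents are applied alone or together to complex spheroids built with HUVEC and hMSC.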
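Also: compound exposure lasted seven days after spheroids formed for three days.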

Q: `C#Cc1c(F)ccc2cc(O)cc(-c3ncc4c(N5CC6CCC(C5)N6)nc(OCC56CCCN5CC(F)C6)nc4c3F)c12` (stereo not given) + CCN1C(C(=O)NC23CCC(C(=O)O)(CC2)CC3)C(c2cccc(Cl)c2F)C2(C(=O)Nc3cc(Cl)ccc32)C12CCCCC2 was tested. Which IC50 (second compound 0.03 µM) did it give?
A: > 10 µM

Q: And the IC50 (second compound 0.0949 µM)?
A: > 10 µM

Q: And the IC50 (second compound 0.3 µM)?
A: > 10 µM

Q: What about the IC50 (second compound 0.949 µM) of the same compound?
A: > 10 µM

Q: And the IC50 (second compound 3 µM)?
A: > 10 µM

Q: And the viability, T/C (second compound 0.03 µM, first compound 0.0316 µM)?
A: 94.3%

Q: What about the viability, T/C (second compound 0.03 µM, first compound 0.1 µM) of the same compound?
A: 105%

Q: And the viability, T/C (second compound 0.03 µM, first compound 0.316 µM)?
A: 116%

Q: What about the viability, T/C (second compound 0.03 µM, first compound 1 µM) of the same compound?
A: 94.5%

Q: And the viability, T/C (second compound 0.03 µM, first compound 3.16 µM)?
A: 108%

Q: And the viability, T/C (second compound 0.03 µM, first compound 10 µM)?
A: 94.6%

Q: And the viability, T/C (second compound 0.0949 µM, first compound 0.0316 µM)?
A: 89.9%

Q: And the viability, T/C (second compound 0.0949 µM, first compound 0.1 µM)?
A: 80.4%

Q: And the viability, T/C (second compound 0.0949 µM, first compound 0.316 µM)?
A: 98.2%

Q: And the viability, T/C (second compound 0.0949 µM, first compound 1 µM)?
A: 87.4%

Q: What about the viability, T/C (second compound 0.0949 µM, first compound 3.16 µM) of the same compound?
A: 90.5%

Q: And the viability, T/C (second compound 0.0949 µM, first compound 10 µM)?
A: 71.4%

Q: And the viability, T/C (second compound 0.3 µM, first compound 0.0316 µM)?
A: 95.1%

Q: And the viability, T/C (second compound 0.3 µM, first compound 0.1 µM)?
A: 102%

Q: And the viability, T/C (second compound 0.3 µM, first compound 0.316 µM)?
A: 102%

Q: And the viability, T/C (second compound 0.3 µM, first compound 1 µM)?
A: 103%

Q: And the viability, T/C (second compound 0.3 µM, first compound 3.16 µM)?
A: 108%

Q: What about the viability, T/C (second compound 0.3 µM, first compound 10 µM) of the same compound?
A: 75.9%

Q: And the viability, T/C (second compound 0.949 µM, first compound 0.0316 µM)?
A: 85.1%

Q: And the viability, T/C (second compound 0.949 µM, first compound 0.1 µM)?
A: 100%

Q: And the viability, T/C (second compound 0.949 µM, first compound 0.316 µM)?
A: 107%

Q: What about the viability, T/C (second compound 0.949 µM, first compound 1 µM) of the same compound?
A: 83.8%

Q: What about the viability, T/C (second compound 0.949 µM, first compound 3.16 µM) of the same compound?
A: 110%

Q: And the viability, T/C (second compound 0.949 µM, first compound 10 µM)?
A: 86.2%

Q: What about the viability, T/C (second compound 3 µM, first compound 0.0316 µM) of the same compound?
A: 89.5%

Q: And the viability, T/C (second compound 3 µM, first compound 0.1 µM)?
A: 91.5%

Q: What about the viability, T/C (second compound 3 µM, first compound 0.316 µM) of the same compound?
A: 89%

Q: What about the viability, T/C (second compound 3 µM, first compound 1 µM) of the same compound?
A: 107%

Q: What about the viability, T/C (second compound 3 µM, first compound 3.16 µM) of the same compound?
A: 100%

Q: What about the viability, T/C (second compound 3 µM, first compound 10 µM) of the same compound?
A: 85.6%

Q: Which results are given for `COc1c(OCCCN2CCOCC2)ccc2c3n(c(=NC(=O)c4cnc(N)nc4)nc12)CCN3` + CNC(C)C(=O)NC1CN(S(=O)(=O)c2cccc(S(=O)(=O)N3CCC4CCC(C(=O)NC(c5ccccc5)c5ccccc5)N4C(=O)C(NC(=O)C(C)NC)C3)c2)CCC2CCC(C(=O)NC(c3ccccc3)c3ccccc3)N2C1=O?
A: IC50 (second compound 0.01 µM): 0.0171 µM; IC50 (second compound 0.0316 µM): 0.011 µM; IC50 (second compound 0.1 µM): 0.00459 µM; IC50 (second compound 0.316 µM): < 0.00316 µM; IC50 (second compound 1 µM): < 0.00316 µM; viability, T/C (second compound 0.01 µM, first compound 0.00316 µM): 65.8%; viability, T/C (second compound 0.01 µM, first compound 0.01 µM): 55.1%; viability, T/C (second compound 0.01 µM, first compound 0.0316 µM): 44.7%; viability, T/C (second compound 0.01 µM, first compound 0.1 µM): 22.7%; viability, T/C (second compound 0.01 µM, first compound 0.316 µM): 16.8%; viability, T/C (second compound 0.01 µM, first compound 1 µM): 8.91%; viability, T/C (second compound 0.0316 µM, first compound 0.00316 µM): 53.5%; viability, T/C (second compound 0.0316 µM, first compound 0.01 µM): 54.3%; viability, T/C (second compound 0.0316 µM, first compound 0.0316 µM): 37.3%; viability, T/C (second compound 0.0316 µM, first compound 0.1 µM): 25.5%; viability, T/C (second compound 0.0316 µM, first compound 0.316 µM): 14%; viability, T/C (second compound 0.0316 µM, first compound 1 µM): 9.58%; viability, T/C (second compound 0.1 µM, first compound 0.00316 µM): 52.3%; viability, T/C (second compound 0.1 µM, first compound 0.01 µM): 45.3%; viability, T/C (second compound 0.1 µM, first compound 0.0316 µM): 30.1%; viability, T/C (second compound 0.1 µM, first compound 0.1 µM): 18.9%; viability, T/C (second compound 0.1 µM, first compound 0.316 µM): 12.8%; viability, T/C (second compound 0.1 µM, first compound 1 µM): 9.36%; viability, T/C (second compound 0.316 µM, first compound 0.00316 µM): 38.2%; viability, T/C (second compound 0.316 µM, first compound 0.01 µM): 39.2%; viability, T/C (second compound 0.316 µM, first compound 0.0316 µM): 28.4%; viability, T/C (second compound 0.316 µM, first compound 0.1 µM): 16.8%; viability, T/C (second compound 0.316 µM, first compound 0.316 µM): 11.8%; viability, T/C (second compound 0.316 µM, first compound 1 µM): 9.4%; viability, T/C (second compound 1 µM, first compound 0.00316 µM): 47.4%; viability, T/C (second compound 1 µM, first compound 0.01 µM): 35.2%; viability, T/C (second compound 1 µM, first compound 0.0316 µM): 25.2%; viability, T/C (second compound 1 µM, first compound 0.1 µM): 18.6%; viability, T/C (second compound 1 µM, first compound 0.316 µM): 9.45%; viability, T/C (second compound 1 µM, first compound 1 µM): 7.69%
